# From patent publication US5935952A, “Quinolone- or naphthylidone-carboxylic acid derivates or their salts” (Toyama Chemical Co., LTD., priority 1994, dated 1999)
# Like-named read-outs stand apart in the source and are kept apart here.
# Experiments:
# Assay type in all cases: cell-based
# E. coli NIHJ JC-2 = assay: Antibacterial activity (MIC, agar dilution, standard method of Japan Society of Chemotherapy) against E. coli NIHJ JC-2; details: Escherichia coli
# Description: (§1) According to the standard method of Japan Society of Chemotherapy [CHEMOTHERAPY, vol.
# S. aureus F-597 = assay: Antibacterial activity (MIC, agar dilution, standard method of Japan Society of Chemotherapy) against S. aureus F-597**; details: Staphylococcus aureus; S. aureus F-597, MRSA (methicillin-resistant S. aureus); Mueller Hinton agar, 37° C., 20 hours, 10^6 cells/plate
# Description: as §1
# **: MRSA (methicillin-resistant S. aureus)
# S. aureus F-137 = assay: Antibacterial activity (MIC, agar dilution, standard method of Japan Society of Chemotherapy) against S. aureus F-137*; details: Staphylococcus aureus, F137; S. aureus F-137, β-lactamase-producing bacteria; Mueller Hinton agar, 37° C., 20 hours, 10^6 cells/plate
# Description: as §1
# *: β-lactamase-producing bacteria
# S. aureus FDA 209P = assay: Antibacterial activity (MIC, agar dilution, standard method of Japan Society of Chemotherapy) against S. aureus FDA 209P; details: Staphylococcus aureus, FDA209P
# Description: as §1
"MIC (E. coli NIHJ JC-2; NIHJJC2, E. coli NIHJ JC-2, Mueller Hinton agar, 37° C., 20 hours, 10^6 cells/plate, read-out: MIC) [µg/mL]",MIC (S. aureus F-597) [µg/mL],MIC (S. aureus F-137) [µg/mL],"MIC (S. aureus FDA 209P; S. aureus FDA 209P, Mueller Hinton agar, 37° C., 20 hours, 10^6 cells/plate, read-out: MIC) [µg/mL]",SMILES,"MIC (E. coli NIHJ JC-2; NIHJJC2, 20 h) [µg/mL]",MIC (S. aureus FDA 209P; 20 h) [µg/mL]
≤ 0.05,≤ 0.05,≤ 0.05,≤ 0.05,"Cc1c(-c2ccc3c(c2)CNC3)c(F)cc2c(=O)c(C(=O)O)cn(C3CC3)c12 [Compound A, 1-cyclopropyl-6-fluoro-7-(isoindolin-5-yl)-8-methyl-1,4-dihydro-4-oxoquinoline-3-carboxylic acid]",,
,,,,"O=C(O)c1cn(C2CC2)c2cc(N3CCNCC3)c(F)cc2c1=O [Compound B, 1-cyclopropyl-6-fluoro-7-(1-piperazinyl)-1,4-dihydro-4-oxoquinoline-3-carboxylic acid, reference compound]",≤ 0.05,0.2
